# According to PubChem BioAssay (NCI):
#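 Interpolation was linear, between the two tested concentrations surrounding the appropriate level; five concentrations were tested over 48 hours in 96-well plates. GI50 = concentration required for 50% inhibition of growth. TGI: concentration producing complete growth inhibition.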
# Key:
# Experiment in all cases: inhibition of tumour cell growth, NCI panel, 48 h
# [1] = test system: SR leukemia
# [2] = test system: IGROV1 ovarian
# [3] = test system: UACC-62 melanoma
# [4] = test system: SK-MEL-2 melanoma
# [5] = test system: PC-3 prostate
# [6] = test system: HS 578T breast
# [7] = test system: NCI-H522 lung
# [8] = test system: ACHN renal
# [9] = test system: NCI-H226 lung
# [10] = test system: SK-MEL-5 melanoma
Structure (SMILES),GI50 [1] [µM],TGI [1] [µM],GI50 [2] [µM],TGI [2] [µM],GI50 [3] [µM],TGI [3] [µM],GI50 [4] [µM],TGI [4] [µM],GI50 [5] [µM],TGI [5] [µM],GI50 [6] [µM],TGI [6] [µM],GI50 [7] [µM],TGI [7] [µM],GI50 [8] [µM],TGI [8] [µM],GI50 [9] [µM],TGI [9] [µM],GI50 [10] [µM],TGI [10] [µM]
Cc1ccc(C(=O)NC2CCCCC2)cc1-c1ccc(C(=O)NCC2CC2)cc1,> 25,> 25,> 25,> 25,17,> 25,> 25,> 25,> 22.8,> 25,> 20.2,> 25,13.5,> 25,> 25,> 25,> 25,> 25,19.9,> 25
CO[C@H]1CC[C@@]2(C)C(=CC[C@H]3[C@@H]4C[C@H](O)C[C@@]4(C)CC[C@@H]32)C1,2.72,14.9,6.91,26.5,3.88,16.9,2.74,6.83,3.91,30.3,2.16,9.41,3.96,15.5,8.2,28.3,13.8,27.8,3.23,13.1
COC(=O)N/N=C(\C)C(CN1CCOCC1)C(c1ccccc1)c1cc2ccccc2oc1=O (centres undefined),–,56.5,–,> 100,–,> 100,–,> 100,–,> 100,–,> 100,–,> 100,–,> 100,–,> 100,–,> 100
COC(=O)Nc1nc2ccc(Oc3ccc(NC(=O)Nc4cccc(Cl)c4)cc3)cc2[nH]1,0.144,> 14.3,2.86,9.79,0.712,4.78,1.07,8.06,1,7.1,0.553,9.67,0.543,4.07,2.23,> 18.6,2.46,24.3,0.492,3.66
COc1ccc(-c2nc(-c3nc4cc(C)c(C)cc4[nH]3)cc3c2[nH]c2ccccc23)cc1,2.33,7.17,9.99,> 100,2.25,6.7,3.28,8.25,2.77,44,4.6,> 100,3,13.5,2.6,27.9,3.32,54.8,2.9,12.6
CC1(C)C2CCC13C(=O)C1OC3(C2)C2C(=O)c3c(O)ccc(O)c3C(=O)C12 (centres undefined),5.17,17.1,23.8,> 100,97.1,> 100,26.1,> 100,30.8,98.5,–,> 54.4,38.8,> 100,41,> 100,> 79,> 100,13.4,41.5
Cc1cccc(N=C2c3cc([N+](=O)[O-])ccc3-c3c2cc([N+](=O)[O-])cc3[N+](=O)[O-])c1,1.94,5.36,5.89,> 100,5.03,20.2,7.39,32.1,5.02,21.6,11.3,53.9,4.35,41.7,3.36,11.5,5.08,22.2,5.44,17.9
